This note sets out measurements from US6949571B2, “1,2-dihydropyridine compounds, process for preparation of the same and use thereof” (Eisai Co., Ltd., priority 2000, dated 2005).
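Also: primary rat embryonic cortical neurons grown on an astrocyte layer in 96-well plates, used after at least 8 to 10 days in culture, Fura2-AM fluorescence ratio at 340/380 nm excitation.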

The test system of the test is AMPA receptor. The note with it: Table 2; suppression of AMPA-induced calcium influx into nerve cells.
In the case of `O=c1c(-c2ccc([N+](=O)[O-])cc2)cc(-c2ccccn2)cn1-c1ccccc1` [Example 275, 3-(4-Nitrophenyl)-1-phenyl-5-(2-pyridyl)-1,2-dihydropyridin-2-one], the IC50 (as a rule, the point on the concentration scale where inhibition reaches its midpoint) came to 6100 nM.
Under `N#Cc1ccccc1-c1cc(-c2ccccn2)cn(-c2cccc(OCc3ccccc3)c2)c1=O` [Example 276, 1-[3-(Benzyloxy)phenyl]-3-(2-cyanophenyl)-5-(2-pyridyl)-1,2-dihydropyridin-2-one] stands 1900 nM.
The value for `CC(=O)c1cccc(-n2cc(-c3ccccn3)cc(-c3ccccc3C#N)c2=O)c1` [Example 277, 1-(3-Acetylphenyl)-3-(2-cyanophenyl)-5-(2-pyridyl)-1,2-dihydropyridin-2-one] was 600 nM; that for `CC(C)(C)NS(=O)(=O)c1ccc(-c2cc(-c3ccccn3)cn(-c3ccccc3)c2=O)cc1` [Example 278, 3-[4-(tert-Butylaminosulfonyl)phenyl]-1-phenyl-5-(2-pyridyl)-1,2-dihydropyridin-2-one] was 2800 nM; that for `O=c1c(-c2cccc3ccccc23)cc(-c2ccccn2)cn1-c1cccnc1` [Example 279, 3-(1-Naphthyl)-5-(2-pyridyl)-1-(3-pyridyl)-1,2-dihydropyridin-2-one] was 3700 nM.
The value for `O=c1c(-c2cccc3ccccc23)cc(-c2ccccn2)cn1-c1ccccc1` [Example 280, 3-(1-Naphthyl)-5-(2-pyridyl)-1-phenyl-1,2-dihydropyridin-2-one] was 1300 nM.
With `O=c1c(-c2cccc3cccnc23)cc(-c2ccccn2)cn1-c1ccccc1` [Example 282, 3-(8-Quinolinyl)-5-(2-pyridyl)-1-phenyl-1,2-dihydropyridin-2-one], the IC50 is 9000 nM.
In the case of `O=c1c(-c2ccc3ccccc3c2)cc(-c2ccccn2)cn1-c1ccccc1` [Example 284, 3-(2-Naphthyl)-5-(2-pyridyl)-1-phenyl-1,2-dihydropyridin-2-one], the IC50 worked out at 2800 nM.
Turning to `O=c1c(-c2ccc(N3CCCC3)nc2)cc(-c2ccccn2)cn1-c1ccccc1` [Example 285, 3-(2-Pyrrolidinopyridin-5-yl)-5-(2-pyridyl)-1-phenyl-1,2-dihydropyridin-2-one], the IC50 is 7200 nM.
For the molecule `O=Cc1sccc1-c1cc(-c2ccccn2)cn(-c2ccccc2)c1=O` [Example 286, 3-(2-Formylthiophen-3-yl)-5-(2-pyridyl)-1-phenyl-1,2-dihydropyridin-2-one], the IC50 came out at 300 nM.
Consider `O=c1c(-c2ccc(Cl)nc2)cc(-c2ccccn2)cn1-c1ccccc1` [Example 287, 3-(2-Chloropyridin-5-yl)-5-(2-pyridyl)-1-phenyl-1,2-dihydropyridin-2-one], for which the half-maximal inhibitory concentration (IC50) stood at 5600 nM.
For `O=c1c(-c2ccc(F)nc2)cc(-c2ccccn2)cn1-c1ccccc1` [Example 288, 3-(2-Fluoropyridin-5-yl)-5-(2-pyridyl)-1-phenyl-1,2-dihydropyridin-2-one], the IC50 is 1200 nM.
As for `N#Cc1ccccc1-c1cc(-c2ccccn2)cn(-c2ccc3ccccc3c2)c1=O` [Example 290, 3-(2-Cyanophenyl)-5-(2-pyridyl)-1-(2-naphthyl)-1,2-dihydropyridin-2-one], the IC50 was determined as 200 nM.
The value for `N#Cc1ccccc1-c1cc(-c2ccccn2)cn(-c2cccc3ccccc23)c1=O` [Example 291, 3-(2-Cyanophenyl)-5-(2-pyridyl)-1-(1-naphthyl)-1,2-dihydropyridin-2-one] was 140 nM.
On to `N#Cc1ccccc1-c1cc(-c2ccccn2)cn(-c2cccc3cccnc23)c1=O` [Example 292, 3-(2-Cyanophenyl)-5-(2-pyridyl)-1-(8-quinolinyl)-1,2-dihydropyridin-2-one], for which the IC50 was 3300 nM.
The value for `O=c1c(-c2cc3ccccc3n2S(=O)(=O)c2ccccc2)cc(-c2ccccn2)cn1-c1ccccc1` [Example 293, 3-[(1-Benzenesulfonyl)indol-2-yl]-1-phenyl-5-(2-pyridyl)-1,2-dihydropyridin-2-one] was 3300 nM.
